Data taken from patent US20210255205A1, “COMPOSITIONS AND METHODS FOR TREATING METABOLIC DISEASE” (THE REGENTS OF THE UNIVERSITY OF CALIFORNIA, priority 2018, published 2021).
pKd: −log10 of the molar value. One block for each compound: values may come before it.

How the values were obtained:
[1] = system: ASTER domain from Aster-B; experiment: 22-NBD-cholesterol binding competition with sterols, Aster-B; details: competitor 10 μM
Experimental: FIG. 1E: Aster-B334-562 (1-10 μM) was titrated with 10-3000 nM 22-NBD-cholesterol in PBS and fluorescent ligand-binding assays were performed. […] FIG. 1G: Aster-B334-562 was titrated with 22-NBD-cholesterol in the presence of vehicle, estradiol, or various hydroxycholesterol (HC) sterol competitors as indicated (10 μM). Results values are means±SD.
Fluorescent sterol binding assays were carried out as previously described (Petrescu et al., 2001; Wei et al., 2016) in 384-well black flat-bottom plates and equilibrated at room temperature for 1 hour. Measurements were made using a CLARIOstar (BMG LABTECH) microplate reader. The NBD fluorophore was excited with 1(ex)=470 nm and 1(em)=525 and plotted using Prism software. Dissociation constants (KD) were determined by nonlinear regression analysis of dose-response curves.
Aster-A (FIG. 15A), B (FIG. 15B) and C (FIG. 15C) was titrated with 22-NBD-cholesterol in the presence of vehicle or various HC sterol competitors as indicated (3 μM). […] Results values are means±SD.

[2] = target: ASTER domains from Aster-A, -B, and -C; experiment: fluorescent NBD-cholesterol binding assay; set-up: species or system mouse; details: NBD-cholesterol 10-3,000 nM, ASTER-domain concentration constant; fit to a single exponential; average over the ASTER domains
Experimental: For binding and transfer studies Aster domains (Aster-A261-576, Aster-B224-560, Aster-C206-528) were expressed by baculovirus in Sf-9 insect cells with an N-terminal FLAG tag and a C-terminal 6× His Tag (“6× His Tag” disclosed as SEQ ID NO: 11). Proteins were expressed with P3 baculovirus for 48 hours at 27° C. Cells were recovered by centrifugation, lysed by sonication. Insoluble material was pelleted at 16,000×g for 40 minutes. Soluble protein was first purified using a Ni-NTA column (Qiagen, 30210) and eluted with 250 mM imidazole PBS buffer after extensive washing. Following dialysis proteins were purified using FLAG M2 affinity gel (Sigma A2220) columns and eluted with 100 μg/mL 1× FLAG peptide after washing for ten column volumes. Proteins were then either dialyzed to remove the FLAG peptide or purified further by size exclusion chromatography.
Fluorescent sterol binding assays were carried out as previously described (Petrescu et al., 2001; Wei et al., 2016) in 384-well black flat-bottom plates and equilibrated at room temperature for 1 hour. Measurements were made using a CLARIOstar (BMG LABTECH) microplate reader. The NBD fluorophore was excited with 1(ex)=470 nm and 1(em)=525 and plotted using Prism software. Dissociation constants (KD) were determined by nonlinear regression analysis of dose-response curves. […]

[3] = system: ASTER domain of Aster-B; experiment: GST agarose assay for [^3H]cholesterol binding; set-up: species or system mouse; details: 150 nM protein, 0.003% Triton X-100 in PBS
Experimental: Reactions were carried out in binding buffer (0.003% Triton X-100 in 1× PBS) containing 150 nM of Aster-B ASTER protein and [^3H]cholesterol. After incubation for 30 min at room temperature, the mixture was incubated with pre-equilibrated of glutathione agarose resin (Pierce PI16100) at 4° C. for 2 h, then loaded onto a column and washed. The protein-bound [^3H]cholesterol was eluted with 10 mM GSH peptide and quantified by scintillation counting.

[4] = system: Gramd1b; experiment: Gramd1b gene expression by real-time PCR in macrophages; format: cell-based; details: wild-type (WT) but not LXR-null mouse macrophages; 1 μM, 16 h
From the text: Values are means±SEM. Results are representative of three independent experiments. […] Input (Ctrl) served as a control for LXR enrichment. […] FIG. 1D: […] Values are means±SEM. FIG. 1E: […] FIG. 1F: […] Results values are means±SD. FIG. 1G: […] Results values are means±SD. FIG. 1H: […] Values are means±SEM. Total RNA was isolated using TRIzol reagent (Invitrogen) and reverse transcribed with the iScript cDNA synthesis kit (Biorad). cDNA was quantified by real-time PCR using SYBR Green Master Mix (Diagenode) on an ABI 7900 instrument. Gene expression levels were determined by using a standard curve. Each gene was normalized to the housekeeping gene 36B4 and was analyzed in duplicate. Primers used for real-time PCR are available upon request. […] Gramd1b was induced by a synthetic LXR agonist in wild-type (WT) but not LXR-null mouse macrophages (FIG. 1A). […] Gramd1b belongs to a family of highly-conserved genes, which have been designated Gramd1a, -b, and -c in databases. One-to-one orthologs of Gramd1b are present in all vertebrate classes (FIG. 2A). The predicted amino acid sequence of the human protein is 78% identical to that from Oreochromis niloticus (nile tilapia). These genes have not previously been characterized; their structures are incorrectly annotated in databases; and the function of their protein products is unknown. […] The protein products are referred to as Aster-A, -B, and -C.

[5] = system: 3T3-L1 cells; experiment: cholesteryl ester formation from [^3H]oleate after Aster-A ASO; format: cell-based, murine
Experimental: FIG. 13A: Immunoblot analysis of membrane (top) and nuclear (bottom) protein levels in 3T3-L1 cells treated for 48 h with control or Aster-A-specific ASO and then for the indicated times with cyclodextrin-cholesterol. Calnexin was used as a membrane loading control and Lamin A/C as a nuclear loading control. FIG. 13B: Real-time PCR analysis of gene expression in 3T3-L1 cells treated for 48 h with control or Aster-A-specific ASO and then for the indicated times with cyclodextrin-cholesterol. ***p<0.001. FIG. 13C: Real-time PCR analysis of Abca1 expression in 3T3-L1 cells treated for 48 h with control or Aster-A-specific ASO and then for the indicated times with cyclodextrin-cholesterol. **p<0.01; ***p<0.001. […] Cells were incubated with [^3H]oleate for the indicated time, CE was isolated by TLC, and the incorporation of label into CE quantified by scintillation counting and normalized to protein (mg). *p<0.05; ***p<0.001. […] FIG. 13H: Serum corticosterone levels measured by ELISA in WT and Aster-B KO mice that were fed ad-lib or fasted overnight (˜16 hours). […]
To assess the effects of Aster deficiency on CE production, cells were incubated in the presence of [^3H]oleate, treated with cyclodextrin-cholesterol complexes, and the incorporation of label into CE was quantified. […]

[6] = system: 3T3-L1 cells; experiment: Aster-A ASO knockdown, SREBP-2 pathway and gene/protein expression; format: cell-based, murine
Experimental: FIG. 13A: Immunoblot analysis of membrane (top) and nuclear (bottom) protein levels in 3T3-L1 cells treated for 48 h with control or Aster-A-specific ASO and then for the indicated times with cyclodextrin-cholesterol. Calnexin was used as a membrane loading control and Lamin A/C as a nuclear loading control. FIG. 13B: Real-time PCR analysis of gene expression in 3T3-L1 cells treated for 48 h with control or Aster-A-specific ASO and then for the indicated times with cyclodextrin-cholesterol. ***p<0.001. FIG. 13C: Real-time PCR analysis of Abca1 expression in 3T3-L1 cells treated for 48 h with control or Aster-A-specific ASO and then for the indicated times with cyclodextrin-cholesterol. **p<0.01; ***p<0.001. FIG. 13D: Time course of cholesteryl ester formation in 3T3-L1 fibroblasts treated with control or Aster-A-specific ASO for 48 h. Cells were incubated with [^3H]oleate for the indicated time, CE was isolated by TLC, and the incorporation of label into CE quantified by scintillation counting and normalized to protein (mg). *p<0.05; ***p<0.001. FIG. 13E: Expression levels of the indicated genes in adrenal glands from WT and Aster-B KO mice (mean±SEM; N=6-8 per group). Statistical analysis was performed using Student's t-test. Values are means±SEM. *p<0.05; **p<0.01; ***p<0.001; ****p<0.0001. FIG. 13F: Immunoblot analysis of membrane (top) and nuclear (bottom) protein levels in adrenals from WT and Aster-B KO mice (n=5). Calnexin was used as a membrane loading control and Lamin A/C as a nuclear loading control. FIG. 13G: Serum cholesterol levels in WT and Aster-B KO mice that were fasting for five h (mean±SEM; N=6 per group). FIG. 13H: Serum corticosterone levels measured by ELISA in WT and Aster-B KO mice that were fed ad-lib or fasted overnight (˜16 hours). N=4 per group. Statistical analysis was performed using Student's t-test. Values are mean±SEM. *p<0.05; **p<0.01; ***p<0.001; ****p<0.0001.
Generation 2.5 constrained ethyl ASOs were synthesized as described previously (Seth et al., 2009). For in vitro knockdown studies, control or Aster-A ASO ([…] (SEQ ID NO: 13)) was used. Undifferentiated murine 3T3-L1 cells were plated in 10% FBS DMEM on Day 0. On Day 1 cells were washed and supplemented with 1% LPDS. Cells were then transfected with ASOs using Dharmafect 1 reagent per the manufacturer's recommendations for knockdown studies (Dharmacon, 50 nM final concentration). On Day 2, the medium was changed to fresh DMEM with 1% LPDS, simvastatin (5 μM) and mevalonate (50 μM). On Day 3 cells were treated as described in FIG. 7A and samples were collected. The rate of incorporation of [^3H]oleate into cholesteryl [^3H]oleate was performed on Day 3 as previously described (Goldstein et al., 1983).
The consequence of loss of Aster function for sterol movement from the PM to the ER in cultured cells was investigated. Since Aster-B expression is minimal in most cultured cell lines, knockdown Aster-A expression, which is abundant 3T3-L1 cells, was chosen. When ER cholesterol levels rise, cells respond first by suppressing SREBP-2 cleavage (thereby blocking sterol synthesis) and second by activating ACAT-dependent CE synthesis. Cholesterol movement to the ER following exogenous delivery was assessed by measuring two endpoints: 1. the activity of the SREBP-2 pathway and 2. the formation of cholesterol esters. […] The fact that some suppression of the SREBP-2 pathway at later time points was still observed even with Aster-A ASO was not unexpected, since vesicular sterol transport pathways were presumably still operative.

[7] = target: T1, Aster-B GRAM domain (Mus musculus, UniProt Q80TI0); experiment: protein-lipid overlay (PIP Strips); format: binding; details: lipid strip, 100 pmol lipid per spot
T1 construct: B GRAM (Aster-B1-337) was conducted using PIP Strips (Echelon Biosciences); made in house; host or cells: Sf9 insect cells
T1 sequence (Q80TI0 41-377 limits assumed): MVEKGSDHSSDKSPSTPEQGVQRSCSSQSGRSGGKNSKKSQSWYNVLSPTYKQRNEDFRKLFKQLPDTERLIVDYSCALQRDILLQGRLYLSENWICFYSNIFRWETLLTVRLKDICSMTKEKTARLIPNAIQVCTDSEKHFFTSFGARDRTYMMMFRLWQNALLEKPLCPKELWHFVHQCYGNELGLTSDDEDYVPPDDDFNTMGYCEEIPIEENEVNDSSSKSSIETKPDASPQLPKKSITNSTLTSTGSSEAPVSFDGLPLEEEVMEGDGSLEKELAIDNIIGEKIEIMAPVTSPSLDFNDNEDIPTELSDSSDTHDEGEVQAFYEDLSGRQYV
Experimental: FIG. 9A: Protein-lipid overlay over purified mouse Aster-B GRAM domain with various phospholipid species. PA and PS correspond to phosphatidic acid and phosphatidylserine, respectively. FIG. 9A discloses “6xHis” as SEQ ID NO: 11. FIG. 9B: Purified Aster-B GRAM domain was incubated with sucrose-loaded heavy liposomes containing Dansyl-PE and 80-85% PC or 80-85% PS+/−5% Cholesterol. Liposomes were sedimented, washed, and analyzed by immunoblotting for associated Aster-B Gram protein (anti-His antibody). FIG. 9C: Localization of full-length and B ΔGRAM Aster-B-GFP constructs with plasma membrane (CellMask stain) expressed in HeLa cells in the presence or absence of cholesterol loading imaged by live cell confocal microscopy. […] FIG. 9E: Quantification of Aster-B PH-EGFP intensity in the TIRF plane upon cholesterol loading (left panel; n=2-3 cells, error bars+/−SD). […] TIRF videos recorded 5 slices (slices 3-5 were used to calculate FO) before cholesterol addition. […]
The Aster proteins contain an N-terminal GRAM domain, a structural motif related to the pleckstrin homology domain that is found in glucosyltransferases, Rab-like GTPase activators, myotubularins, and other membrane-associated proteins. […] Given that phosphatidylserine is highly enriched in the inner leaflet of the PM, it was further determined if the Aster-B GRAM domain was associated with phosphatidylserine-containing liposomes.

Compound: CC(C)CCC[C@@H](C)[C@H]1CC[C@H]2[C@@H]3CC=C4[C@@H](O)[C@@H](O)CC[C@]4(C)[C@H]3CC[C@]12C [4β-hydroxycholesterol]
inhibition of binding of NBD-cholesterol to the ASTER domain from Aster-B [1]: comparatively poor competitors

Compound: CC(C)CCC[C@@H](C)[C@H]1CC[C@H]2[C@@H]3[C@@H](O)C=C4C[C@@H](O)CC[C@]4(C)[C@H]3CC[C@]12C [7β-hydroxycholesterol]
inhibition of binding of NBD-cholesterol to the ASTER domain from Aster-B [1]: comparatively poor competitors

Compound: CC(C)CCC[C@](C)(O)[C@H]1CC[C@H]2[C@@H]3CC=C4C[C@@H](O)CC[C@]4(C)[C@H]3CC[C@@]21C [20α-HC, 20α-hydroxycholesterol]
inhibition of binding of NBD-cholesterol to the ASTER domain from Aster-B [1]: inhibited

Compound: CC(C)CC[C@@H](O)[C@@H](C)[C@H]1CC[C@H]2[C@@H]3CC=C4C[C@@H](O)CC[C@]4(C)[C@H]3CC[C@]12C [22R-HC, 22-R-hydroxycholesterol]
inhibition of binding of NBD-cholesterol to the ASTER domain from Aster-B [1]: inhibited

inhibition of binding of NBD-cholesterol to the ASTER domain from Aster-B [1]: comparatively poor competitors
Compound: CC(C)CC[C@H](O)[C@@H](C)[C@H]1CC[C@H]2[C@@H]3CC=C4C[C@@H](O)CC[C@]4(C)[C@H]3CC[C@]12C [22S-hydroxycholesterol]

Compound: C[C@H](CCCC(C)(C)O)[C@H]1CC[C@H]2[C@@H]3CC=C4C[C@@H](O)CC[C@]4(C)[C@H]3CC[C@]12C [25-HC, 25-hydroxycholesterol]
inhibition of binding of NBD-cholesterol to the ASTER domain from Aster-B [1]: inhibited

Compound: C[C@H](CNc1ccc([N+](=O)[O-])c2nonc12)[C@H]1CC[C@H]2[C@@H]3CC=C4C[C@@H](O)CC[C@]4(C)[C@H]3CC[C@]12C [NBD-cholesterol, 22-NBD-cholesterol]
pKd [2]: > 7.00

direct binding to the ASTER domain of Aster-B [3]: direct binding
Compound: CC(C)CCC[C@@H](C)[C@H]1CC[C@H]2[C@@H]3CC=C4C[C@@H](O)CC[C@]4(C)[C@H]3CC[C@]12C [[^3H]cholesterol]

inhibition of binding of NBD-cholesterol to the ASTER domain from Aster-B [1]: inhibited
Compound: CC(C)CCC[C@@H](C)[C@H]1CC[C@H]2[C@@H]3CC=C4C[C@@H](O)CC[C@]4(C)[C@H]3CC[C@]12C [cholesterol]

Compound: O=C(O)Cc1cccc(OCCCN(Cc2cccc(C(F)(F)F)c2Cl)CC(c2ccccc2)c2ccccc2)c1 [synthetic LXR agonist, GW3965]
Gramd1b expression [4]: induced

Compound: Aster-A-specific ASO: Generation 2.5 constrained ethyl ASO, GTGGAATTTATTCAGG (SEQ ID NO: 13) (Generation 2.5 constrained ethyl (cEt) ASO, modification pattern not given here)
rate at which cholesterol delivered to the PM was incorporated into CE ([5]; [^3H]oleate, cyclodextrin-cholesterol): markedly slower
amount of CE formed relative to control cells ([5]; two hours after cholesterol addition): less than 25%
Gramd1a expression ([6]; ASO 50 nM, 48 h): nearly abolished
LDLR protein levels ([6]; ASO 48 h): increased
SREBP-2 processing ([6]; ASO 48 h): induction
expression of SREBP-2 target genes, including Hmcgr, and Hmgcs ([6]; ASO 48 h): increased
ability of exogenously added cyclodextrin-cholesterol to suppress SREBP-2 processing ([6]; Aster-A silenced cells): clearly delayed
expression of Abca1 (protein and mRNA) ([6]; absence of Aster-A): reciprocally reduced

interaction with purified Aster-B GRAM domain [7]: interacted strongly
Compound: phosphatidic acid [phosphatidic acid (PA)]
